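GI50 is the concentration that inhibits growth by half. TGI marks complete inhibition of growth.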
How the values were obtained:
Test in all cases: NCI anticancer screen, dose series, 384-well format; in the data active = GI50 below about 0.43 µM; inactive = the rest
[1] = test system: SK-MEL-5 melanoma
[2] = test system: UO-31 renal
[3] = test system: IGROV1 ovarian
[4] = test system: UACC-62 melanoma
[5] = test system: T-47D breast
[6] = test system: OVCAR-4 ovarian
[7] = test system: SK-OV-3 ovarian
[8] = test system: NCI-H322M lung
[9] = test system: COLO 205 colon
[10] = test system: HL-60(TB) leukemia
[11] = test system: HS 578T breast
[12] = test system: M14 melanoma
[13] = test system: A498 renal
[14] = test system: MDA-MB-231 breast
[15] = test system: CCRF-CEM leukemia
[16] = test system: SF-295 CNS
[17] = test system: HT29 colon
[18] = test system: SNB-19 CNS
[19] = test system: MALME-3M melanoma
[20] = test system: OVCAR-3 ovarian
[21] = test system: NCI-H460 NSCLC
[22] = test system: NCI-H522 lung
[23] = test system: OVCAR-8 ovarian
[24] = test system: 786-0 renal
[25] = test system: SK-MEL-28 melanoma
[26] = test system: HOP-92 NSCLC
[27] = test system: SF-268 CNS
[28] = test system: HOP-62 NSCLC
[29] = test system: SN12C renal
[30] = test system: DU-145 prostate
[31] = test system: HCT-116 colon
[32] = test system: TK-10 renal
[33] = test system: SNB-75 CNS
[34] = test system: MOLT-4 leukemia
[35] = test system: CAKI-1 renal
[36] = test system: UACC-257 melanoma
[37] = test system: RPMI-8226 leukemia
[38] = test system: RXF 393 renal
[39] = test system: MDA-MB-435 melanoma
[40] = test system: PC-3 prostate
[41] = test system: NCI-H226 lung
[42] = test system: A549 NSCLC
[43] = test system: NCI/ADR-RES ovarian
[44] = test system: EKVX NSCLC
[45] = test system: HCC-2998 colon
[46] = test system: U251 glioblastoma
[47] = test system: BT-549 breast
[48] = test system: OVCAR-5 ovarian
[49] = test system: SW-620 colon
[50] = test system: SF-539 CNS
[51] = test system: NCI-H23 lung
[52] = test system: ACHN renal
[53] = test system: MDA-MB-468 breast
[54] = test system: SR leukemia
[55] = test system: HCT-15 colon
[56] = test system: MCF7 breast
[57] = test system: KM12 colon
[58] = test system: LOX IMVI melanoma
[59] = test system: K-562 leukemia
[60] = test system: SK-MEL-2 melanoma

CS(=O)(=O)c1ccc(Oc2cc(F)cc(C#N)c2)c2c1[C@H](O)[C@H](F)[C@@H]2F
> 100 µM: TGI [1] | TGI [2] | TGI [3] | TGI [4] | TGI [5] | TGI [6] | TGI [7] | TGI [8] | TGI [9] | TGI [10] | TGI [11] | TGI [12] | TGI [13] | TGI [14] | TGI [15] | TGI [16] | TGI [17] | TGI [18] | TGI [19] | TGI [20] | TGI [21] | TGI [22] | TGI [23] | TGI [24] | TGI [25] | TGI [26] | TGI [27] | TGI [28] | TGI [29] | TGI [30] | TGI [31] | TGI [32] | TGI [33] | TGI [34] | TGI [35] | TGI [36] | TGI [37] | TGI [38] | TGI [39] | TGI [40] | TGI [41] | TGI [42] | TGI [43] | TGI [44] | TGI [45] | TGI [46] | TGI [47] | TGI [48] | TGI [49] | TGI [50] | TGI [51] | TGI [52] | TGI [53] | TGI [54] | TGI [55] | TGI [56] | TGI [57] | TGI [58]
inactive: GI50 [1] > 100 µM | GI50 [2] > 100 µM | GI50 [3] > 100 µM | GI50 [4] > 100 µM | GI50 [5] > 100 µM | GI50 [6] > 100 µM | GI50 [7] > 100 µM | GI50 [8] > 100 µM | GI50 [9] > 100 µM | GI50 [10] > 100 µM | GI50 [11] > 100 µM | GI50 [12] > 100 µM | GI50 [13] > 100 µM | GI50 [14] > 100 µM | GI50 [15] > 100 µM | GI50 [16] > 100 µM | GI50 [17] > 100 µM | GI50 [18] > 100 µM | GI50 [19] > 100 µM | GI50 [20] > 100 µM | GI50 [21] > 100 µM | GI50 [22] > 100 µM | GI50 [23] > 100 µM | GI50 [24] > 100 µM | GI50 [25] > 100 µM | GI50 [26] > 100 µM | GI50 [27] > 100 µM | GI50 [28] > 100 µM | GI50 [29] > 100 µM | GI50 [30] > 100 µM | GI50 [31] > 100 µM | GI50 [32] > 100 µM | GI50 [33] > 100 µM | GI50 [34] > 100 µM | GI50 [35] > 100 µM | GI50 [36] > 100 µM | GI50 [37] > 100 µM | GI50 [38] > 100 µM | GI50 [39] > 100 µM | GI50 [40] > 100 µM | GI50 [41] > 100 µM | GI50 [42] > 100 µM | GI50 [43] > 100 µM | GI50 [44] > 100 µM | GI50 [45] > 100 µM | GI50 [46] > 100 µM | GI50 [47] > 100 µM | GI50 [48] > 100 µM | GI50 [49] > 100 µM | GI50 [50] > 100 µM | GI50 [51] > 100 µM | GI50 [52] > 100 µM | GI50 [53] > 100 µM | GI50 [54] > 100 µM | GI50 [55] > 100 µM | GI50 [56] > 100 µM | GI50 [57] > 100 µM | GI50 [58] > 100 µM

CCn1c(=O)c(-c2ccn[nH]2)cc2c(C)nc(N)nc21
2.16 µM: TGI [34]
1.31 µM: TGI [26]
15.7 µM: TGI [24]
5 µM: TGI [54]
4 µM: TGI [1]
2.76 µM: TGI [47]
7 µM: TGI [10]
15.6 µM: TGI [27]
6.83 µM: TGI [48]
10.8 µM: TGI [21]
1.66 µM: TGI [11]
1.21 µM: TGI [3]
> 60.4 µM: TGI [23]
3.78 µM: TGI [35]
19.7 µM: TGI [39]
13.9 µM: TGI [45]
8 µM: TGI [43]
10.7 µM: TGI [4]
3.5 µM: TGI [32]
2.03 µM: TGI [19]
1.57 µM: TGI [53]
> 34.5 µM: TGI [29]
> 30.2 µM: TGI [51]
39.4 µM: TGI [36]
> 100 µM: TGI [59] | TGI [18] | TGI [30] | TGI [31] | TGI [55] | TGI [56]
7.35 µM: TGI [9]
9.94 µM: TGI [42]
2.04 µM: TGI [5]
5.51 µM: TGI [41]
2.93 µM: TGI [7]
4.23 µM: TGI [22]
1.97 µM: TGI [13]
2.57 µM: TGI [40]
7.22 µM: TGI [25]
4.52 µM: TGI [44]
> 27.4 µM: TGI [12]
0.646 µM: TGI [37]
9.87 µM: TGI [60]
active: GI50 [3] 0.333 µM | GI50 [5] 0.394 µM | GI50 [11] 0.31 µM | GI50 [13] 0.384 µM | GI50 [26] 0.201 µM | GI50 [37] 0.232 µM | GI50 [38] 0.399 µM | GI50 [40] 0.369 µM | GI50 [47] 0.33 µM | GI50 [53] 0.358 µM
inactive: GI50 [1] 1.16 µM | GI50 [4] 1.56 µM | GI50 [6] 1.39 µM | GI50 [7] 0.562 µM | GI50 [8] 2.18 µM | GI50 [9] 2.24 µM | GI50 [10] 0.84 µM | GI50 [12] 2.2 µM | GI50 [59] 6.58 µM | GI50 [14] 0.955 µM | GI50 [15] 0.434 µM | GI50 [16] 1.58 µM | GI50 [17] 2.42 µM | GI50 [18] 18.1 µM | GI50 [19] 0.456 µM | GI50 [20] 0.853 µM | GI50 [21] 0.883 µM | GI50 [22] 0.671 µM | GI50 [23] 2.75 µM | GI50 [24] 2.91 µM | GI50 [25] 1.14 µM | GI50 [60] 3.22 µM | GI50 [27] 1.89 µM | GI50 [28] 1.93 µM | GI50 [29] 1.22 µM | GI50 [30] 3.38 µM | GI50 [31] 5.31 µM | GI50 [32] 0.79 µM | GI50 [33] 0.477 µM | GI50 [34] 0.587 µM | GI50 [35] 0.663 µM | GI50 [36] 3.78 µM | GI50 [39] 2.71 µM | GI50 [41] 1.33 µM | GI50 [42] 2.27 µM | GI50 [43] 1.58 µM | GI50 [44] 0.911 µM | GI50 [45] 2.19 µM | GI50 [46] 5.62 µM | GI50 [48] 1.01 µM | GI50 [49] 3.24 µM | GI50 [50] 2.97 µM | GI50 [51] 1.43 µM | GI50 [52] 2 µM | GI50 [54] 1.75 µM | GI50 [55] 2.36 µM | GI50 [56] 0.511 µM | GI50 [57] 3.39 µM
21.5 µM: TGI [50]
2.54 µM: TGI [15]
4.46 µM: TGI [20]
> 69.5 µM: TGI [17]
97.9 µM: TGI [46]
10.3 µM: TGI [8]
2.4 µM: TGI [33]
11.2 µM: TGI [6]
8.64 µM: TGI [16]
> 23.8 µM: TGI [14]
11.6 µM: TGI [28]
38.6 µM: TGI [57]
1.9 µM: TGI [38]
25.7 µM: TGI [49]
8.33 µM: TGI [52]
